Test results as given in patent US20250140406A1, “CLASSIFYING TUMORS AND PREDICTING RESPONSIVENESS” (Oncocyte Corporation, priority 2022, published 2025).

What follows are molecules tested on cancer cell lines classified IM, MSL, M (assay: PRISM screen compound sensitivity correlated with IM, MSL and M subtype of cell lines (101 gene signature)). Settings: not given.
Type: cell-based
In the case of `COCC(O)Cn1ccnc1[N+](=O)[O-]` (centres unmarked) [misonidazole], the TNBCType train is reported as “MSL”.

Same assay, conditions: subtype (IM, MSL or M) assigned to the compound by negative correlation of PRISM sensitivity with subtype; training cell set (371 cell lines), 101 gene signature
`Cc1cc(Nc2cc(N3CCN(C)CC3)nc(/C=C/c3ccccc3)n2)n[nH]1` [ENMD-2076] was tested, and the TNBCType train was “MSL”. With `CN(C)c1cccc(-c2c3c(=O)n(-c4ccccc4Cl)[nH]c3cc(=O)n2C)c1` [GKT137831] the TNBCType train was “MSL”. In the case of `CCCCOc1nc(N)c2c(n1)N(Cc1cccc(CN3CCCC3)c1)CC(=O)N2` [GS-9620], the TNBCType train is reported as “MSL”. With `O=C(O)CCc1ccc(NCc2cccc(Oc3ccccc3)c2)cc1` [GW-9508] the TNBCType train was “MSL”. In the case of `CC(C)NC(=O)COc1cccc(-c2nc(Nc3ccc4[nH]ncc4c3)c3ccccc3n2)c1` [KD025], the TNBCType train is reported as “MSL”. For `Nc1cc(F)ccc1NC(=O)/C=C/c1cnn(C/C=C/c2ccccc2)c1` [RGFP966], the TNBCType train was “MSL”. In the case of `Cc1ccc(-c2ccc(C)cn2)nc1` [abametapir], the TNBCType train is reported as “MSL”. With `CC1(C)S[C@@H]2[C@H](NC(=O)[C@H](N)c3ccccc3)C(=O)N2[C@H]1C(=O)O` [ampicillin] the TNBCType train was “MSL”. With `Nc1ccn([C@H]2CO[C@@H](CO)S2)c(=O)n1` [apricitabine] the TNBCType train was “MSL”. With `CCN(CC)CCn1c(=O)c(Cc2ccc(OC)cc2)nc2ccccc21` [caroverine] the TNBCType train was “MSL”. With `N=C(N)N1CCc2ccccc2C1` [debrisoquin] the TNBCType train was “MSL”. In the case of `NS(=O)(=O)c1cc(Cl)c(Cl)c(S(N)(=O)=O)c1` [diclofenamide], the TNBCType train is reported as “MSL”. In the case of `COc1cc(OC)cc(N(CCNC(C)C)c2ccc3ncc(-c4cnn(C)c4)nc3c2)c1` [erdafitinib], the TNBCType train is reported as “MSL”. `COc1cc([C@@H]2c3cc4c(cc3[C@@H](O[C@@H]3O[C@@H]5CO[C@@H](C)O[C@H]5[C@H](O)[C@H]3O)[C@H]3COC(=O)[C@H]23)OCO4)cc(OC)c1OP(=O)(O)O` [etoposide-phosphate] was tested, and the TNBCType train was “MSL”. `Oc1ccc(C2=Cc3ccc(O)cc3OC2)cc1` [idronoxil] was tested, and the TNBCType train was “MSL”. In the case of `COc1c2occc2c(OC)c2c(=O)cc(C)oc12` [khellin], the TNBCType train is reported as “MSL”. In the case of `CCCOc1ccc(S(=O)(=O)N2CCN(CCO)CC2)cc1-c1nc2c(CCC)cn(CC)c2c(=O)[nH]1` [mirodenafil], the TNBCType train is reported as “MSL”. For `COc1cccc(C(=O)CCN[C@@H](C)[C@H](O)c2ccccc2)c1` [oxyfedrine], the TNBCType train was “MSL”.

Same assay, conditions: subtype (IM, MSL or M) the PRISM compound sensitivity is associated with; training cell set (371 cell lines); 101 gene signature
With `CN1CC2c3ccccc3Oc3ccc(Cl)cc3C2C1` (centres unmarked) [asenapine] the TNBCType train was “MSL”. For `O=C(/C=C/c1ccc(O)c(O)c1)OCCc1ccccc1` [caffeic-acid-phenethyl-ester], the TNBCType train was “MSL”. In the case of `O=C(Cn1ccnc1[N+](=O)[O-])NCCO` [etanidazole], the TNBCType train is reported as “MSL”. `CCOC(=O)c1ncn2c1CN(C)C(=O)c1cc(F)ccc1-2` [flumazenil] was tested, and the TNBCType train was “MSL”. With `O=P(O)(O)CP(=O)(O)O` [medronic-acid] the TNBCType train was “MSL”. In the case of `CC[C@H](C)C(=O)O[C@H]1CCC=C2C=C[C@H](C)[C@H](CC[C@@H]3C[C@@H](O)CC(=O)O3)[C@H]21` [mevastatin], the TNBCType train is reported as “MSL”.

Same assay, conditions: subtype (IM, MSL or M) with which PRISM compound sensitivity is negatively correlated; training cell set, 101 gene signature
`Cc1ccc2c(=O)c3cccc(CC(=O)O)c3oc2c1C` [ASA-404] was tested, and the TNBCType train was “MSL”. For `O=C(Nc1ccccc1F)N[C@H]1N=C(c2ccccc2)c2ccccc2NC1=O` [RSV604], the TNBCType train was “MSL”. In the case of `OC1CCC(Nc2nc(-c3ccccc3)nc3[nH]ccc23)CC1` (centres unmarked) [SLV-320], the TNBCType train is reported as “MSL”. In the case of `CCOC(=O)COc1ccc2c(c1)C[C@@H](NC[C@H](O)c1cccc(Cl)c1)CC2` [amibegron], the TNBCType train is reported as “MSL”. For `CC(=O)OCC1=C(C(=O)O)N2C(=O)[C@@H](NC(=O)Cc3cccs3)[C@H]2SC1` [cephalothin], the TNBCType train was “MSL”. In the case of `CC(C)NC(=N)NC(=N)Nc1ccc(Cl)c(Cl)c1` [chlorproguanil], the TNBCType train is reported as “MSL”. With `N#CCC(=O)NN` [cyacetacide] the TNBCType train was “MSL”. In the case of `Cc1ccc2c(c1)[C@]13CCCC[C@@H]1[C@H](C2)N(C)CC3` [dimemorfan], the TNBCType train is reported as “MSL”. In the case of `N[C@H](C(=O)O)[C@H](O)c1ccc(O)c(O)c1` [droxidopa], the TNBCType train is reported as “MSL”. In the case of `CSc1ccc(C(=O)c2[nH]c(=O)[nH]c2C)cc1` [enoximone], the TNBCType train is reported as “MSL”. In the case of `CC1=C(CC(=O)O)c2cc(F)ccc2/C1=C\c1ccc(S(C)(=O)=O)cc1` [exisulind], the TNBCType train is reported as “MSL”. In the case of `O=C(O)c1ccccc1OP(=O)(O)O` [fosfosal], the TNBCType train is reported as “MSL”. With `O=C1NC(c2ccccc2)(c2ccccc2)C(=O)N1COP(=O)(O)O` [fosphenytoin] the TNBCType train was “MSL”. `CC(C)(CO)CCCCCCC(C)(C)CO` [gemcadiol] was tested, and the TNBCType train was “MSL”. For `COc1cc2nccc(Oc3ccc(NC(=O)NC4CC4)c(Cl)c3)c2cc1C(N)=O` [lenvatinib], the TNBCType train was “MSL”. `CCN1CCC[C@H]1CNC(=O)c1cc(S(N)(=O)=O)ccc1OC` [levosulpiride] was tested, and the TNBCType train was “MSL”. With `CNC(=O)c1cccc2cc(Oc3ccnc4cc(OCC5(N)CC5)c(OC)cc34)ccc12` [lucitanib] the TNBCType train was “MSL”. For `COC(=O)c1ccc2c(c1)NC(=O)/C2=C(\Nc1ccc(N(C)C(=O)CN2CCN(C)CC2)cc1)c1ccccc1` [nintedanib], the TNBCType train was “MSL”. With `CC(C)Oc1ccc(-c2nc(-c3cccc4c3CC[C@@H]4NCCO)no2)cc1C#N` [ozanimod] the TNBCType train was “MSL”.

Same assay, conditions: subtype (IM, MSL or M) with which compound sensitivity is negatively correlated; training cell set (371 cell lines), 101 gene signature
With `CC1=C(C(=O)Nc2cc3cn[nH]c3cc2F)C(c2ccc(C(F)(F)F)cc2)CC(=O)N1` (centres unmarked) [GSK429286A] the TNBCType train was “MSL”. In the case of `CC(O)c1cc(C(=O)N[C@@H](C)Cn2ccc(-c3ccc(C#N)c(Cl)c3)n2)[nH]n1` (some centres unmarked) [ODM-201], the TNBCType train is reported as “MSL”. In the case of `CC(CC(C(N)=O)(c1ccccc1)c1ccccc1)N(C)C` (centres unmarked) [aminopentamide], the TNBCType train is reported as “MSL”. For `CCOC(=O)OC(C)OC(=O)[C@@H]1N2C(=O)[C@@H](NC(=O)[C@H](N)c3ccccc3)[C@H]2SC1(C)C` (some centres unmarked) [bacampicillin], the TNBCType train was “MSL”. `O=C(/C=C/c1ccc(O)c(O)c1)c1ccc(O)cc1O` [butein] was tested, and the TNBCType train was “MSL”. In the case of `CC(C)NCC(O)COc1cccc2[nH]c3ccccc3c12` (centres unmarked) [carazolol], the TNBCType train is reported as “MSL”. In the case of `Oc1c(Cl)cc(Cl)c2cccnc12` [chloroxine], the TNBCType train is reported as “MSL”. With `CC(C)(Oc1ccc(Cl)cc1)C(=O)O` [clofibric-acid] the TNBCType train was “MSL”. `O=C1c2cccc(O)c2C(=O)c2c(O)cccc21` [dantron] was tested, and the TNBCType train was “MSL”. In the case of `CC[C@H](CC[C@@H](C)[C@H]1CC[C@H]2[C@@H]3CC=C4C[C@@H](O[C@@H]5O[C@H](CO)[C@@H](O)[C@H](O)[C@H]5O)CC[C@]4(C)[C@H]3CC[C@]12C)C(C)C` [daucosterol], the TNBCType train is reported as “MSL”. With `O=C(OCC(O)CO)c1ccccc1Nc1ccnc2c(C(F)(F)F)cccc12` (centres unmarked) [floctafenine] the TNBCType train was “MSL”. With `O=c1[nH]cnc2nc[nH]c12` [hypoxanthine] the TNBCType train was “MSL”. `C[C@@H](c1nc(-c2ccc(C#N)cc2)cs1)[C@](O)(Cn1cncn1)c1cc(F)ccc1F` [isavuconazole] was tested, and the TNBCType train was “MSL”. In the case of `CC(C(=O)O)c1cccc(C(=O)c2ccccc2)c1` (centres unmarked) [ketoprofen], the TNBCType train is reported as “MSL”. For `Cc1[nH]cnc1-c1ccc(Cl)cc1` [lofemizole], the TNBCType train was “MSL”.

Same assay, conditions: subtype (IM, MSL, M) with which compound sensitivity correlates; test set
In the case of `O=C(Nc1ccccc1F)N[C@H]1N=C(c2ccccc2)c2ccccc2NC1=O` [RSV604], the TNBCType test is reported as “MSL”. With `COc1cc(OC)cc(N(CCNC(C)C)c2ccc3ncc(-c4cnn(C)c4)nc3c2)c1` [erdafitinib] the TNBCType test was “MSL/M”. `O=c1[nH]c2ccccc2n1C1CCN(CCOc2ccccc2)CC1` [oxiperomide] was tested, and the TNBCType test was “MSL/M”.

Same assay, conditions: subtype (IM, MSL, M) with which compound sensitivity correlates; training set
In the case of `O=C(Nc1ccccc1F)N[C@H]1N=C(c2ccccc2)c2ccccc2NC1=O` [RSV604], the TNBCType train is reported as “MSL”. With `COc1cc(OC)cc(N(CCNC(C)C)c2ccc3ncc(-c4cnn(C)c4)nc3c2)c1` [erdafitinib] the TNBCType train was “MSL”.

Same assay, conditions: subtype with which compound sensitivity correlates; test cell lines
In the case of `COc1cc(OC)cc(N(CCNC(C)C)c2ccc3ncc(-c4cnn(C)c4)nc3c2)c1` [erdafitinib], the TNBCType test is reported as “MSL/M”. With `CC[C@H](C)C(=O)O[C@H]1CCC=C2C=C[C@H](C)[C@H](CC[C@@H]3C[C@@H](O)CC(=O)O3)[C@H]21` [mevastatin] the TNBCType test was “MSL”.

Same assay, conditions: subtype with which compound sensitivity correlates; training cell lines
`COc1cc(OC)cc(N(CCNC(C)C)c2ccc3ncc(-c4cnn(C)c4)nc3c2)c1` [erdafitinib] was tested, and the TNBCType train was “MSL”. `CC[C@H](C)C(=O)O[C@H]1CCC=C2C=C[C@H](C)[C@H](CC[C@@H]3C[C@@H](O)CC(=O)O3)[C@H]21` [mevastatin] was tested, and the TNBCType train was “MSL”.
